Tests used:
Assay in all cases: relative viability (nuclei count vs DMSO), 5 days (fraction); higher = more cells survive
Avagacestat = compound: NC(=O)[C@@H](CCC(F)(F)F)N(Cc1ccc(-c2ncon2)cc1F)S(=O)(=O)c1ccc(Cl)cc1 [Avagacestat]
In short: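 MetaXpress counted nuclei in 4× images of lung cancer cell lines that had been fixed, permeabilised and Hoechst-stained in one step. Before that, cells in 1536-well plates were kept overnight at 37 °C, pinned with five √10-spaced library-drug doses on vehicle-anchored plates, and cultured 5 days without medium change. Viability takes treated-well nuclei over vehicle-well nuclei and uses the median across plates. Plates were accepted only at control CV below 25% and at least one doubling.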

Avagacestat + Trametinib = compound: NC(=O)[C@@H](CCC(F)(F)F)N(Cc1ccc(-c2ncon2)cc1F)S(=O)(=O)c1ccc(Cl)cc1 [Avagacestat] + CC(=O)Nc1cccc(-n2c(=O)n(C3CC3)c(=O)c3c(Nc4ccc(I)cc4F)n(C)c(=O)c(C)c32)c1 [Trametinib] (partner 0.02 µM)
In short: (§1)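 Relative viability is defined as nuclei in treated wells over nuclei in vehicle wells. Duplicate plates were run and medians reported. Lung cancer cell lines in 1536-well plates were dosed by pin tool one day after seeding, with one drug or with a fixed anchor-drug dose plus five library-drug doses (not always all listed) in √10 steps, and nuclei were counted after 5 days.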

Avagacestat + OSI-027 = compound: NC(=O)[C@@H](CCC(F)(F)F)N(Cc1ccc(-c2ncon2)cc1F)S(=O)(=O)c1ccc(Cl)cc1 [Avagacestat] + COc1cccc2cc(-c3nc([C@H]4CC[C@H](C(=O)O)CC4)n4ncnc(N)c34)[nH]c12 [OSI-027] (partner 0.5 µM)
In short: as §1

Avagacestat + Phenformin = compound: NC(=O)[C@@H](CCC(F)(F)F)N(Cc1ccc(-c2ncon2)cc1F)S(=O)(=O)c1ccc(Cl)cc1 [Avagacestat] + N=C(N)NC(=N)NCCc1ccccc1 [Phenformin] (partner 250 µM)
In short: as §1

NCI-H2342
relative viability (Avagacestat; 0.08 µM): 0.955 | relative viability (Avagacestat; 0.253 µM): 0.906 | relative viability (Avagacestat; 0.8 µM): 0.935 | relative viability (Avagacestat; 2.53 µM): 0.888 | relative viability (Avagacestat; 8 µM): 0.949 | relative viability (Avagacestat + Trametinib; first compound 0.08 µM): 0.725 | relative viability (Avagacestat + Trametinib; first compound 0.253 µM): 0.771 | relative viability (Avagacestat + Trametinib; first compound 0.8 µM): 0.784 | relative viability (Avagacestat + Trametinib; first compound 2.53 µM): 0.766 | relative viability (Avagacestat + Trametinib; first compound 8 µM): 0.693 | relative viability (Avagacestat + OSI-027; first compound 0.08 µM): 0.589 | relative viability (Avagacestat + OSI-027; first compound 0.253 µM): 0.597 | relative viability (Avagacestat + OSI-027; first compound 0.8 µM): 0.674 | relative viability (Avagacestat + OSI-027; first compound 2.53 µM): 0.602 | relative viability (Avagacestat + OSI-027; first compound 8 µM): 0.572 | relative viability (Avagacestat + Phenformin; first compound 0.08 µM): 0.634 | relative viability (Avagacestat + Phenformin; first compound 0.253 µM): 0.53 | relative viability (Avagacestat + Phenformin; first compound 0.8 µM): 0.629 | relative viability (Avagacestat + Phenformin; first compound 2.53 µM): 0.59 | relative viability (Avagacestat + Phenformin; first compound 8 µM): 0.588

NCI-H2347
relative viability (Avagacestat; 0.08 µM): 1.1 | relative viability (Avagacestat; 0.253 µM): 1.07 | relative viability (Avagacestat; 0.8 µM): 1.13 | relative viability (Avagacestat; 2.53 µM): 1.03 | relative viability (Avagacestat; 8 µM): 0.97 | relative viability (Avagacestat + Trametinib; first compound 0.08 µM): 0.283 | relative viability (Avagacestat + Trametinib; first compound 0.253 µM): 0.324 | relative viability (Avagacestat + Trametinib; first compound 0.8 µM): 0.388 | relative viability (Avagacestat + Trametinib; first compound 2.53 µM): 0.327 | relative viability (Avagacestat + Trametinib; first compound 8 µM): 0.283 | relative viability (Avagacestat + OSI-027; first compound 0.08 µM): 0.506 | relative viability (Avagacestat + OSI-027; first compound 0.253 µM): 0.352 | relative viability (Avagacestat + OSI-027; first compound 0.8 µM): 0.398 | relative viability (Avagacestat + OSI-027; first compound 2.53 µM): 0.366 | relative viability (Avagacestat + OSI-027; first compound 8 µM): 0.369 | relative viability (Avagacestat + Phenformin; first compound 0.08 µM): 0.363 | relative viability (Avagacestat + Phenformin; first compound 0.253 µM): 0.537 | relative viability (Avagacestat + Phenformin; first compound 0.8 µM): 0.602 | relative viability (Avagacestat + Phenformin; first compound 2.53 µM): 0.448 | relative viability (Avagacestat + Phenformin; first compound 8 µM): 0.357

NCI-H2405
relative viability (Avagacestat; 0.08 µM): 1.01 | relative viability (Avagacestat; 0.253 µM): 0.99 | relative viability (Avagacestat; 0.8 µM): 1.08 | relative viability (Avagacestat; 2.53 µM): 0.956 | relative viability (Avagacestat; 8 µM): 0.97 | relative viability (Avagacestat + Trametinib; first compound 0.08 µM): 0.687 | relative viability (Avagacestat + Trametinib; first compound 0.253 µM): 0.69 | relative viability (Avagacestat + Trametinib; first compound 0.8 µM): 0.548 | relative viability (Avagacestat + Trametinib; first compound 2.53 µM): 0.508 | relative viability (Avagacestat + Trametinib; first compound 8 µM): 0.554 | relative viability (Avagacestat + OSI-027; first compound 0.08 µM): 0.628 | relative viability (Avagacestat + OSI-027; first compound 0.253 µM): 0.638 | relative viability (Avagacestat + OSI-027; first compound 0.8 µM): 0.603 | relative viability (Avagacestat + OSI-027; first compound 2.53 µM): 0.571 | relative viability (Avagacestat + OSI-027; first compound 8 µM): 0.516 | relative viability (Avagacestat + Phenformin; first compound 0.08 µM): 0.393 | relative viability (Avagacestat + Phenformin; first compound 0.253 µM): 0.45 | relative viability (Avagacestat + Phenformin; first compound 0.8 µM): 0.44 | relative viability (Avagacestat + Phenformin; first compound 2.53 µM): 0.381 | relative viability (Avagacestat + Phenformin; first compound 8 µM): 0.408

NCI-H3122
relative viability (Avagacestat; 0.08 µM): 1.07 | relative viability (Avagacestat; 0.253 µM): 1.08 | relative viability (Avagacestat; 0.8 µM): 1.05 | relative viability (Avagacestat; 2.53 µM): 0.995 | relative viability (Avagacestat; 8 µM): 0.927 | relative viability (Avagacestat + Trametinib; first compound 0.08 µM): 0.298 | relative viability (Avagacestat + Trametinib; first compound 0.253 µM): 0.233 | relative viability (Avagacestat + Trametinib; first compound 0.8 µM): 0.197 | relative viability (Avagacestat + Trametinib; first compound 2.53 µM): 0.23 | relative viability (Avagacestat + Trametinib; first compound 8 µM): 0.219 | relative viability (Avagacestat + OSI-027; first compound 0.08 µM): 1.09 | relative viability (Avagacestat + OSI-027; first compound 0.253 µM): 1.24 | relative viability (Avagacestat + OSI-027; first compound 0.8 µM): 1.21 | relative viability (Avagacestat + OSI-027; first compound 8 µM): 1.07 | relative viability (Avagacestat + Phenformin; first compound 0.08 µM): 0.405 | relative viability (Avagacestat + Phenformin; first compound 0.253 µM): 0.391 | relative viability (Avagacestat + Phenformin; first compound 0.8 µM): 0.428 | relative viability (Avagacestat + Phenformin; first compound 8 µM): 0.405

PC-3 [JPC-3]
relative viability (Avagacestat; 0.08 µM): 1.2 | relative viability (Avagacestat; 0.253 µM): 1.08 | relative viability (Avagacestat; 0.8 µM): 1.25 | relative viability (Avagacestat; 2.53 µM): 1.05 | relative viability (Avagacestat; 8 µM): 1.02 | relative viability (Avagacestat + Trametinib; first compound 0.08 µM): 0.763 | relative viability (Avagacestat + Trametinib; first compound 0.253 µM): 0.754 | relative viability (Avagacestat + Trametinib; first compound 0.8 µM): 0.816 | relative viability (Avagacestat + Trametinib; first compound 2.53 µM): 0.742 | relative viability (Avagacestat + Trametinib; first compound 8 µM): 0.714 | relative viability (Avagacestat + OSI-027; first compound 0.08 µM): 0.912 | relative viability (Avagacestat + OSI-027; first compound 0.253 µM): 0.799 | relative viability (Avagacestat + OSI-027; first compound 0.8 µM): 0.908 | relative viability (Avagacestat + OSI-027; first compound 2.53 µM): 0.697 | relative viability (Avagacestat + OSI-027; first compound 8 µM): 0.735 | relative viability (Avagacestat + Phenformin; first compound 0.08 µM): 0.461 | relative viability (Avagacestat + Phenformin; first compound 0.253 µM): 0.443 | relative viability (Avagacestat + Phenformin; first compound 0.8 µM): 0.487 | relative viability (Avagacestat + Phenformin; first compound 2.53 µM): 0.472 | relative viability (Avagacestat + Phenformin; first compound 8 µM): 0.521

PC-14
relative viability (Avagacestat; 0.08 µM): 1.32 | relative viability (Avagacestat; 0.253 µM): 1.18 | relative viability (Avagacestat; 0.8 µM): 1.35 | relative viability (Avagacestat; 2.53 µM): 1.02 | relative viability (Avagacestat; 8 µM): 0.922 | relative viability (Avagacestat + Trametinib; first compound 0.08 µM): 1.14 | relative viability (Avagacestat + Trametinib; first compound 0.253 µM): 1.1 | relative viability (Avagacestat + Trametinib; first compound 0.8 µM): 0.933 | relative viability (Avagacestat + Trametinib; first compound 2.53 µM): 0.736 | relative viability (Avagacestat + Trametinib; first compound 8 µM): 0.649 | relative viability (Avagacestat + OSI-027; first compound 0.08 µM): 1.19 | relative viability (Avagacestat + OSI-027; first compound 0.253 µM): 0.888 | relative viability (Avagacestat + OSI-027; first compound 0.8 µM): 0.749 | relative viability (Avagacestat + OSI-027; first compound 2.53 µM): 0.599 | relative viability (Avagacestat + OSI-027; first compound 8 µM): 0.74 | relative viability (Avagacestat + Phenformin; first compound 0.08 µM): 0.768 | relative viability (Avagacestat + Phenformin; first compound 0.253 µM): 0.728 | relative viability (Avagacestat + Phenformin; first compound 0.8 µM): 0.86 | relative viability (Avagacestat + Phenformin; first compound 8 µM): 0.628

— the supplement of paper PMC10307832
